Measured values taken from the CombiSolv-Exp solvation set (Vermeire and Green 2021).

Test: solvent given as SMILES
[1] = in CCCCCCCCC=CCCCCCCCC(=O)OCC(COC(=O)CCCCCCCC=CCCCCCCCC)OC(=O)CCCCCCCC=CCCCCCCCC

CCCCN(CCC)N=O
solvation free energy, 298 K (in CC(C)CC(C)(C)C): -30 kJ/mol
solvation free energy, 298 K (in O): -21.4 kJ/mol

O=CO
solvation free energy, 298 K (in C=CCCCCCCC=C): -12.1 kJ/mol
solvation free energy, 298 K (in C=CCCCCCCCCCCCCCC): -10.3 kJ/mol

COP(=S)(OC)Oc1ccc([N+](=O)[O-])cc1
solvation free energy, 298 K (in O): -30.1 kJ/mol

CCOc1ccc(NC(C)=O)cc1
solvation free energy, 298 K (in C1CCOC1): -57.2 kJ/mol
solvation free energy, 298 K (in CCCCCCCCO): -54.7 kJ/mol
solvation free energy, 298 K (in CCCCCO): -54.6 kJ/mol
solvation free energy, 298 K (in CCCCO): -55.4 kJ/mol
solvation free energy, 298 K (in CCCO): -55.1 kJ/mol
solvation free energy, 298 K (in CCO): -55.8 kJ/mol
solvation free energy, 298 K (in CCOC(C)=O): -53.8 kJ/mol
solvation free energy, 298 K (in CO): -56.9 kJ/mol
solvation free energy, 298 K (in O): -45.6 kJ/mol

O=C(c1cc([N+](=O)[O-])cc([N+](=O)[O-])c1)N(O)c1ccccc1
solvation free energy, 298 K (in O): -65.4 kJ/mol

Cc1ccccn1
solvation free energy, 298 K (in CC(C)(C)O): -24.7 kJ/mol
solvation free energy, 298 K (in CC(C)CC(C)(C)C): -19.6 kJ/mol
solvation free energy, 298 K (in CC(C)CO): -25.9 kJ/mol
solvation free energy, 298 K (in CC(C)O): -24.6 kJ/mol
solvation free energy, 298 K (in CCC(C)O): -25.1 kJ/mol
solvation free energy, 298 K (in CCOC(C)=O): -23.7 kJ/mol
solvation free energy, 298 K (in O): -19.4 kJ/mol

COc1ccccc1O
solvation free energy, 298 K (in O): -23.7 kJ/mol

CCCCCC(=O)CC(=O)CCCCC
solvation free energy, 298 K (in O): -15.4 kJ/mol

C1=CCCC1
solvation free energy, 298 K (in CN1CCCC1=O): -11.9 kJ/mol
solvation free energy, 298 K (in CN(C)C=O): -12.3 kJ/mol
solvation free energy, 298 K (in CS(C)=O): -11.4 kJ/mol
solvation free energy, 298 K (in O): 2.26 kJ/mol
solvation free energy, 298 K (in O=CN1CCOCC1): -10.5 kJ/mol

CCCCCCCCCCCCC
solvation free energy, 298 K (in O): 17.2 kJ/mol

Oc1c(Cl)c(Cl)c(Cl)c(Cl)c1Cl
solvation free energy, 298 K [1]: -42.9 kJ/mol
solvation free energy, 298 K (in O): -20.9 kJ/mol

CC(=O)C1CCCCC1
solvation free energy, 298 K (in O): -16.3 kJ/mol

CF
solvation free energy, 298 K (in CCCO): 0.126 kJ/mol
solvation free energy, 298 K (in O): -0.92 kJ/mol

CCCC
solvation free energy, 298 K (in C1CCC2CCCCC2C1): -9.41 kJ/mol
solvation free energy, 298 K (in C1COCCO1): -8.91 kJ/mol
solvation free energy, 298 K (in CC1COC(=O)O1): -4.98 kJ/mol
solvation free energy, 298 K (in CC#N): -6.23 kJ/mol
solvation free energy, 298 K (in CC(=O)N(C)C): -7.32 kJ/mol
solvation free energy, 298 K (in CC(C)(C)O): -8.66 kJ/mol
solvation free energy, 298 K (in CC(C)=O): -8.91 kJ/mol
solvation free energy, 298 K (in CC(C)CCO): -8.45 kJ/mol
solvation free energy, 298 K (in CC(C)CO): -8.49 kJ/mol
solvation free energy, 298 K (in CC(C)O): -8.49 kJ/mol
solvation free energy, 298 K (in CC(CC(C)(C)C)CC(C)(C)CC(C)(C)C): -12.4 kJ/mol
solvation free energy, 298 K (in CCC(C)(C)O): -9.04 kJ/mol
solvation free energy, 298 K (in CCC(C)=O): -9.67 kJ/mol
solvation free energy, 298 K (in CCC(C)CO): -8.49 kJ/mol
solvation free energy, 298 K (in CCC(O)CC): -8.66 kJ/mol
solvation free energy, 298 K (in CCCC(C)O): -8.49 kJ/mol
solvation free energy, 298 K (in CCCCC): -10.9 kJ/mol
solvation free energy, 298 K (in CCCCCC): -10.7 kJ/mol
solvation free energy, 298 K (in CCCCCCC): -10.6 kJ/mol
solvation free energy, 298 K (in CCCCCCCC): -10.4 kJ/mol
solvation free energy, 298 K (in CCCCCCCCC): -10.2 kJ/mol
solvation free energy, 298 K (in CCCCCCCCCC): -10.2 kJ/mol
solvation free energy, 298 K (in CCCCCCCCCCCC): -9.71 kJ/mol
solvation free energy, 298 K (in CCCCCCCCCCCCC): -9.67 kJ/mol
solvation free energy, 298 K (in CCCCCCCCCCCCCC): -9.33 kJ/mol
solvation free energy, 298 K (in CCCCCCCCCCCCCCC): -9.37 kJ/mol
solvation free energy, 298 K (in CCCCCCCCCCCCCCCC): -9.25 kJ/mol
solvation free energy, 298 K (in CCCCCCCCO): -8.74 kJ/mol
solvation free energy, 298 K (in CCCCCCCO): -8.2 kJ/mol
solvation free energy, 298 K (in CCCCCO): -8.49 kJ/mol
solvation free energy, 298 K (in CCCCO): -7.82 kJ/mol
solvation free energy, 298 K (in CCCCOCCCC): -10.2 kJ/mol
solvation free energy, 298 K (in CCCO): -8.28 kJ/mol
solvation free energy, 298 K (in CCO): -7.99 kJ/mol
solvation free energy, 298 K (in CN1CCCC1=O): -6.53 kJ/mol
solvation free energy, 298 K (in CN(C)C=O): -6.15 kJ/mol
solvation free energy, 298 K (in CN(C)P(=O)(N(C)C)N(C)C): -7.74 kJ/mol
solvation free energy, 298 K (in CO): -7.24 kJ/mol
solvation free energy, 298 K (in COC(C)=O): -8.16 kJ/mol
solvation free energy, 298 K (in COCCOCCO): -5.69 kJ/mol
solvation free energy, 298 K (in COCCOCCOC): -7.91 kJ/mol
solvation free energy, 298 K (in COCCOCCOCCOC): -6.86 kJ/mol
solvation free energy, 298 K (in COCCOCCOCCOCCOC): -6.78 kJ/mol
solvation free energy, 298 K (in CS(C)=O): -4.14 kJ/mol
solvation free energy, 298 K (in Cc1ccc(C)cc1): -9.75 kJ/mol
solvation free energy, 298 K (in Cc1cccc(C)c1): -9.79 kJ/mol
solvation free energy, 298 K (in Cc1ccccc1C): -9.67 kJ/mol
solvation free energy, 298 K (in ClC(Cl)(Cl)Cl): -11.2 kJ/mol
solvation free energy, 298 K (in Clc1ccccc1): -9.71 kJ/mol
solvation free energy, 298 K (in Ic1ccccc1): -8.58 kJ/mol
solvation free energy, 298 K (in N#Cc1ccccc1): -8.08 kJ/mol
solvation free energy, 298 K (in NC=O): -0.502 kJ/mol
solvation free energy, 298 K (in Nc1ccccc1): -5.86 kJ/mol
solvation free energy, 298 K (in O): 8.66 kJ/mol
solvation free energy, 298 K (in O=CN1CCOCC1): -3.81 kJ/mol
solvation free energy, 298 K (in OC1CCCCC1): -7.53 kJ/mol
solvation free energy, 298 K (in OCCCOCCCO): -5.19 kJ/mol
solvation free energy, 298 K (in OCCO): -1.21 kJ/mol
solvation free energy, 298 K (in OCc1ccccc1): -6.32 kJ/mol
solvation free energy, 298 K (in c1ccccc1): -10 kJ/mol

Brc1cc(Br)c(Br)cc1Br
solvation free energy, 298 K [1]: -40.6 kJ/mol
solvation free energy, 298 K (in O): -10.6 kJ/mol

COCOC
solvation free energy, 298 K (in ClC(Cl)(Cl)Cl): -15.3 kJ/mol
solvation free energy, 298 K (in ClC(Cl)Cl): -16.7 kJ/mol
solvation free energy, 298 K (in O): -12.3 kJ/mol
solvation free energy, 298 K (in S=C=S): -13.7 kJ/mol

Nc1ccc(N)c2c1C(=O)c1ccccc1C2=O
solvation free energy, 298 K (in O): -49.6 kJ/mol

CC(=O)OCCC(C)C
solvation free energy, 298 K (in CCCCCCCCCCCCCCCC): -20.8 kJ/mol
solvation free energy, 298 K (in CCCCCCCCO): -22.3 kJ/mol
solvation free energy, 298 K (in O): -9.58 kJ/mol
solvation free energy, 298 K (in [2H]O[2H]): -9.87 kJ/mol

CN1CCCCC1
solvation free energy, 298 K (in COC(C)(C)C): -20.1 kJ/mol
solvation free energy, 298 K (in O): -16.2 kJ/mol

CCCCCCCl
solvation free energy, 298 K (in O): 0 kJ/mol

Cc1cc(C)cc(C)c1
solvation free energy, 298 K (in O): -3.22 kJ/mol
solvation free energy, 298 K (in OCCO): -15.7 kJ/mol
solvation free energy, 298 K (in OCCOCCO): -19.5 kJ/mol

CCCCP(=O)(CCCC)CCCC
solvation free energy, 298 K (in O): -46.4 kJ/mol

CC1=C2CC3CCC(C)C2(CC1)C3(C)C (stereo unspecified)
solvation free energy, 298 K (in O): 3.26 kJ/mol

CCCN(CCC)N=O
solvation free energy, 298 K (in CC(C)CC(C)(C)C): -27.4 kJ/mol

Nc1ncnc2c1ncn2C1CC(O)C(CO)O1 (stereo unspecified)
solvation free energy, 298 K (in C=CCCCCCCC=C): -69.5 kJ/mol
solvation free energy, 298 K (in C=CCCCCCCCCCCCCCC): -66.1 kJ/mol
solvation free energy, 298 K (in O): -102 kJ/mol

CCNc1nc(Cl)nc(NC(C)(C)C#N)n1
solvation free energy, 298 K (in O): -55.4 kJ/mol

CCCCCCCNCc1ccc(C)cc1
solvation free energy, 298 K (in O): -21 kJ/mol

O=COc1ccccc1
solvation free energy, 298 K (in O): -16 kJ/mol

CC(Cl)Cl
solvation free energy, 298 K (in CCCCCCCCO): -13.8 kJ/mol
solvation free energy, 298 K (in ClC(Cl)(Cl)Cl): -15.8 kJ/mol
solvation free energy, 298 K (in ClC(Cl)Cl): -17.2 kJ/mol
solvation free energy, 298 K (in ClCCCl): -16.8 kJ/mol
solvation free energy, 298 K (in O): -3.51 kJ/mol

O=C(O)c1ccccc1Cl
solvation free energy, 298 K (in CC(C)=O): -43.4 kJ/mol
solvation free energy, 298 K (in CN(C)C=O): -46.6 kJ/mol
solvation free energy, 298 K (in O): -31.5 kJ/mol

CC(=O)C(C)O (stereo unspecified)
solvation free energy, 298 K (in O): -17.9 kJ/mol

CC(C)c1ccc2c(c1)CCC1C(C)(C)CCCC21C (stereo unspecified)
solvation free energy, 298 K (in O): -1.55 kJ/mol

FC(F)(F)C(F)(F)C(F)(F)C(F)(F)C(F)(F)C(F)(F)F
solvation free energy, 298 K (in CCCCCC): -8.87 kJ/mol
solvation free energy, 298 K (in CCCO): -4.02 kJ/mol

Clc1ccc(C(c2ccccc2Cl)C(Cl)(Cl)Cl)cc1 (stereo unspecified)
solvation free energy, 298 K [1]: -57.7 kJ/mol
solvation free energy, 298 K (in O): -22.2 kJ/mol

C=CC(C)=CCC=C(C)C
solvation free energy, 298 K (in O): -2.09 kJ/mol

OCc1ccccc1
solvation free energy, 298 K (in CCCCCCCCCCCCCCCC): -24 kJ/mol
solvation free energy, 298 K (in N#Cc1ccccc1): -33.5 kJ/mol
solvation free energy, 298 K (in O): -28.4 kJ/mol

COc1ccc2cc(C(C)C(=O)O)ccc2c1 (stereo unspecified)
solvation free energy, 298 K (in C1CCOC1): -75.1 kJ/mol
solvation free energy, 298 K (in C1COCCO1): -74.1 kJ/mol
solvation free energy, 298 K (in CC(C)CCO): -68.5 kJ/mol
solvation free energy, 298 K (in CC(C)CO): -68.1 kJ/mol
solvation free energy, 298 K (in CC(C)O): -69.6 kJ/mol
solvation free energy, 298 K (in CCC(C)O): -69.3 kJ/mol
solvation free energy, 298 K (in CCCC(C)O): -69 kJ/mol
solvation free energy, 298 K (in CCCCCCCCCCO): -67.9 kJ/mol
solvation free energy, 298 K (in CCCCCCCO): -69 kJ/mol
solvation free energy, 298 K (in CCCCCCO): -69 kJ/mol
solvation free energy, 298 K (in CCCCCO): -69.1 kJ/mol
solvation free energy, 298 K (in CCCCO): -69.3 kJ/mol
solvation free energy, 298 K (in CCCCOC(C)=O): -69.6 kJ/mol
solvation free energy, 298 K (in CCCO): -69.6 kJ/mol
solvation free energy, 298 K (in CCO): -69.7 kJ/mol
solvation free energy, 298 K (in CCOC(C)=O): -71.3 kJ/mol
solvation free energy, 298 K (in CCOCC): -69.8 kJ/mol
solvation free energy, 298 K (in CO): -70 kJ/mol
solvation free energy, 298 K (in COC(C)=O): -71.2 kJ/mol

Clc1ccc(Cl)c(-c2cc(Cl)c(Cl)c(Cl)c2)c1
solvation free energy, 298 K (in O): -15.1 kJ/mol

FC(F)Cl
solvation free energy, 298 K (in CCCCCCCC(=O)OCC(COC(=O)CCCCCCC)OC(=O)CCCCCCC): -7.07 kJ/mol
solvation free energy, 298 K (in CCCCCCCCC): -4.85 kJ/mol
